These results are taken from US20220370453A1 (Storm Therapeutics Ltd, priority 2019, published 2022).

Molecules are shown by their SMILES.

Experiment [1] addresses T1, BCDIN3D (Homo sapiens, UniProt Q7Z5W3).
T1 sequence (Q7Z5W3 1-292): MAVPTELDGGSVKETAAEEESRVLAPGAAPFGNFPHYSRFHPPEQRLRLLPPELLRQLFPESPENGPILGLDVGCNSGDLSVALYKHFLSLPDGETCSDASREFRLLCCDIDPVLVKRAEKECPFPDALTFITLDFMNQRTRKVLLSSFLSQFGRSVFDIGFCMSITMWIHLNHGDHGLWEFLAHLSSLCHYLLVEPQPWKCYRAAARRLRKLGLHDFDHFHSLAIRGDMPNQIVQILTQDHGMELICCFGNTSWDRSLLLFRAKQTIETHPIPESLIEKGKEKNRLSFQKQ
Kind of experiment: BCDIN3D IC50 RFMS (RapidFire) assay with mini-helix. It counts as biochemical. Particulars: mini-helix substrate 0.2 μM, SAM 6 μM, 25 nM enzyme. The method, boiled down:
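SAH formation was measured by RapidFire mass spectrometry with D4- and 13C10-SAH internal standards after TCA quench. Substrates 6 μM SAM and 0.2 μM mini-helix reacted 1 h at 37 °C with 25 nM enzyme, which had been preincubated 10 min with compound (1% DMSO) in Tris pH 8.0 buffer with DTT, EDTA, BSA.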

In experiment [2] the target is T1, BCDIN3D. Kind of experiment: BCDIN3D InCellPulse thermal stability assay in transfected A549 cells. It counts as cell-based. Particulars: transiently transfected A549 cells, heat shock 58° C. 15 min. The method in brief: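 Thermal stabilisation read-out: after a 15 min 58 °C heat shock, ePL-tagged BCDIN3D in transiently transfected A549 cells (1500/well) was quantified by enzyme-fragment complementation luminescence. Compounds were pre-incubated with cells 1 h at 37 °C, 0.6% DMSO final.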

Consider `CNc1nc(NC[C@H](N)c2ccccc2)nc2c1cnn2C` [Compound 4.40, 6-N-[(2R)-2-amino-2-phenylethyl]-4-N,1-dimethylpyrazolo[3,4-d]pyrimidine-4,6-diamine], for which the figures for the IC50 against BCDIN3D [1] and on BCDIN3D [2] were 3630 nM and 4790 nM, respectively.
The like results for `Cn1ncc2c(NC3(C)CCOCC3)nc(NC[C@H](N)c3ccccc3)nc21` [Compound 4.127, N6-[(2R)-2-amino-2-phenylethyl]-1-methyl-N4-(4-methyloxan-4-yl)-1H-pyrazolo[3,4-d]pyrimidine-4,6-diamine] were, in that order, 6770 nM and 2240 nM.
As for `Cn1ncc2c(Nc3ccc(C(F)(F)F)cc3)nc(NCC(N)c3ccccc3)nc21` (centres unmarked) [Compound 4.17, 6-N-(2-amino-2-phenylethyl)-1-methyl-4-N-[4-(trifluoromethyl)phenyl]pyrazolo[3,4-d]pyrimidine-4,6-diamine], the half-inhibitory concentration (IC50) turned out to be 50.1 nM at BCDIN3D [1] and 178 nM against BCDIN3D [2].
On to `Cn1ncc2c(Nc3ccc(Cl)c(F)c3)nc(NCC3(N)CC3)nc21` [Compound 2.23], for which the 50% inhibitory concentration (IC50) against BCDIN3D [1] is 59.1 nM; at BCDIN3D [2], 473 nM.
On to `Cn1ncc2c(NC(C)(C)C)nc(NCC(N)c3ccccc3F)nc21` (centres unmarked) [Compound 5.13, N6-[2-amino-2-(2-fluorophenyl)ethyl]-N4-tert-butyl-1-methyl-pyrazolo[3,4-d]pyrimidine-4,6-diamine], for which the results for the IC50 against BCDIN3D [1] and against BCDIN3D [2] were 383 nM and 525 nM, respectively.
Regarding `Cn1ncc2c(Nc3ccc(OC(F)(F)F)cc3)nc(NCC3(N)CC3)nc21` [Compound 2.32, 6-N-[(1-aminocyclopropyl)methyl]-1-methyl-4-N-[4-(trifluoromethoxy)phenyl]pyrazolo[3,4-d]pyrimidine-4,6-diamine], the IC50 on BCDIN3D [1] came out at 176 nM; against BCDIN3D [2], 815 nM.
Regarding `Cn1ncc2c(NC(C)(C)C(F)(F)F)nc(NC[C@H](N)c3cccc(C#N)c3)nc21` [Compound 5.23, 3-[(1R)-1-amino-2-[[1-methyl-4-[(2,2,2-trifluoro-1,1-dimethyl-ethyl)amino]pyrazolo[3,4-d]pyrimidin-6-yl]amino]ethyl]benzonitrile], the IC50 on BCDIN3D [1] was 61.7 nM; at BCDIN3D [2], 124 nM.
As to `Cn1ncc2c(Nc3ccc(OC(F)F)cc3)nc(NCC3(N)CC3)nc21` [Compound 2.34, 6-N-[(1-aminocyclopropyl)methyl]-4-N-[4-(difluoromethoxy)phenyl]-1-methylpyrazolo[3,4-d]pyrimidine-4,6-diamine], the figures for the IC50 on BCDIN3D [1] and at BCDIN3D [2] were 201 nM and 1420 nM, respectively.
Taken in the same sequence, the figures for `Cn1ncc2c(NC(C)(C)C(F)(F)F)nc(NC[C@H](N)c3ccccc3)nc21` [Compound 4.75, N6-[(2R)-2-amino-2-phenyl-ethyl]-1-methyl-N4-(2,2,2-trifluoro-1,1-dimethyl-ethyl)pyrazolo[3,4-d]pyrimidine-4,6-diamine] were 240 nM and 711 nM.
Turning to `Cn1ncc2c(Nc3ccc(C(F)(F)F)cc3)nc(NCC3(N)COC3)nc21` [Compound 3.28, 6-N-[(3-Aminooxetan-3-yl)methyl]-1-methyl-4-N-[4-(trifluoromethyl)phenyl]pyrazolo[3,4-d]pyrimidine-4,6-diamine], the IC50 on BCDIN3D [1] came to 383 nM; at BCDIN3D [2] it was 4670 nM.
In the case of `Cn1ncc2c(Nc3ccc(F)cc3)nc(NCC(N)c3ccccc3)nc21` (centres unmarked) [Compound 4.10, 6-N-(2-amino-2-phenylethyl)-4-N-(4-fluorophenyl)-1-methylpyrazolo[3,4-d]pyrimidine-4,6-diamine], the figures for the half-maximal inhibitory concentration (IC50) against BCDIN3D [1] and against BCDIN3D [2] were 71.7 nM and 323 nM, respectively.
The like results for `Cn1ncc2c(NC3CCC(C(F)(F)F)CC3)nc(NC[C@H](N)c3ccccc3)nc21` (stereo partly drawn) [Compound 4.125, N6-[(2R)-2-amino-2-phenylethyl]-1-methyl-N4-[4-(trifluoromethyl)cyclohexyl]-1H-pyrazolo[3,4-d]pyrimidine-4,6-diamine] were, in that order, 450 nM and 2310 nM.
The like results for `[2H]C([2H])([2H])n1ncc2c(NC(C)(C)C)nc(NCC(N)c3ccccc3F)nc21` (centres unmarked) [Compound 5.14, N6-[2-amino-2-(2-fluorophenyl)ethyl]-N4-tert-butyl-1-(trideuteriomethyl)pyrazolo[3,4-d]pyrimidine-4,6-diamine] were, in that order, 294 nM and 429 nM.
For the molecule `Cn1ncc2c(NC(C)(C)C)nc(NC[C@H](N)c3ccccc3Cl)nc21` [Compound 5.11, N6-[(2R)-2-amino-2-(2-chlorophenyl)ethyl]-N4-tert-butyl-1-methyl-pyrazolo[3,4-d]pyrimidine-4,6-diamine], the IC50 was determined as 321 nM against BCDIN3D [1] and 457 nM on BCDIN3D [2].
Regarding `Cn1ncc2c(NCC3CCC3(F)F)nc(NC[C@H](N)c3ccccc3)nc21` (stereo partly drawn) [Compound 4.106, N6-[(2R)-2-amino-2-phenyl-ethyl]-N4-[(2,2-difluorocyclobutyl)methyl]-1-methyl-pyrazolo[3,4-d]pyrimidine-4,6-diamine], the IC50 against BCDIN3D [1] was 149 nM; against BCDIN3D [2], 437 nM.
`[2H]C([2H])([2H])n1ncc2c(Nc3ccc(C(F)(F)F)cc3)nc(NC[C@H](N)c3ccccc3)nc21` [Compound 4.24, N6-[(2R)-2-amino-2-phenyl-ethyl]-1-(trideuteriomethyl)-N4-[4-(trifluoromethyl)phenyl]pyrazolo[3,4-d]pyrimidine-4,6-diamine]: the IC50 against BCDIN3D [1] stood at 13.9 nM; at BCDIN3D [2] it was 14.4 nM.
For `Cn1ncc2c(NC3CCOCC3)nc(NC[C@H](N)c3ccccc3)nc21` [Compound 4.69, N6-[(2R)-2-amino-2-phenyl-ethyl]-1-methyl-N4-tetrahydropyran-4-yl-pyrazolo[3,4-d]pyrimidine-4,6-diamine], the half-maximal inhibitory concentration (IC50) was determined as 851 nM at BCDIN3D [1] and 3140 nM at BCDIN3D [2].
For the molecule `Cn1ncc2c(N[C@H]3CCC(F)(F)C3)nc(NC[C@H](N)c3ccccc3)nc21` [Compound 4.126, N6-[(2R)-2-amino-2-phenylethyl]-N4-[(1S)-3,3-difluorocyclopentyl]-1-methyl-1H-pyrazolo[3,4-d]pyrimidine-4,6-diamine], the concentration for half-maximal inhibition (IC50) on BCDIN3D [1] came to 450 nM; against BCDIN3D [2] it was 580 nM.
Take `Cn1ncc2c(Nc3ccc(F)c(Cl)c3)nc(NCC3(N)CC3)nc21` [Compound 2.27, 6-N-[(1-aminocyclopropyl)methyl]-4-N-(3-chloro-4-fluorophenyl)-1-methylpyrazolo[3,4-d]pyrimidine-4,6-diamine]: the half-inhibitory concentration (IC50) against BCDIN3D [1] was 262 nM; against BCDIN3D [2] it was 1810 nM.
Consider `CC(C)[C@H](C)Nc1nc(NC[C@H](N)c2ccccc2)nc2c1cnn2C` [Compound 4.123, N6-[(2R)-2-amino-2-phenylethyl]-1-methyl-N4-[(2S)-3-methylbutan-2-yl]-1H-pyrazolo[3,4-d]pyrimidine-4,6-diamine], for which the IC50 at BCDIN3D [1] came to 1410 nM; on BCDIN3D [2], 3560 nM.
On to `COCC(N)CNc1nc(NCc2ccc(C)c(Cl)c2)c2cnn(C)c2n1` (centres unmarked) [Compound 3.27, 6-N-(2-amino-3-methoxypropyl)-4-N-[(3-chloro-4-methylphenyl)methyl]-1-methylpyrazolo[3,4-d]pyrimidine-4,6-diamine], for which the values for the IC50 on BCDIN3D [1] and against BCDIN3D [2] were 4310 nM and 4790 nM, respectively.
Taken in the same sequence, the figures for `Cn1ncc2c(Nc3ccc(F)cc3F)nc(NCC3(N)CC3)nc21` [Compound 2.05, 6-N-[(1-aminocyclopropyl)methyl]-4-N-(2,4-difluorophenyl)-1-methylpyrazolo[3,4-d]pyrimidine-4,6-diamine] were 1670 nM and 5050 nM.
Regarding `Cn1ncc2c(NC(C)(C)C3CC3)nc(NC[C@H](N)c3ccccc3)nc21` [Compound 4.59, N6-[(2R)-2-amino-2-phenyl-ethyl]-N4-(1-cyclopropyl-1-methyl-ethyl)-1-methyl-pyrazolo[3,4-d]pyrimidine-4,6-diamine], the results for the IC50 at BCDIN3D [1] and at BCDIN3D [2] were 109 nM and 77.5 nM, respectively.
Regarding `CC(C)Cc1nc(NCC(N)c2ccccc2)nc2c1cnn2C` (centres unmarked) [Compound 4.130, N2-[1-methyl-4-(2-methylpropyl)-1H-pyrazolo[3,4-d]pyrimidin-6-yl]-1-phenylethane-1,2-diamine], the IC50 against BCDIN3D [1] is 6010 nM; on BCDIN3D [2] it was 11200 nM.
Take `CNc1nc(NCC(C)(N)c2ccccc2)nc2c1cnn2C` (centres unmarked) [Compound 4.39, 6-N-(2-amino-2-phenylpropyl)-4-N,1-dimethylpyrazolo[3,4-d]pyrimidine-4,6-diamine]: the half-inhibitory concentration (IC50) is 9170 nM at BCDIN3D [1] and 17100 nM at BCDIN3D [2].
Regarding `Cn1ncc2c(Nc3cnc(C(F)(F)F)cn3)nc(NCC3(N)CC3)nc21` [Compound 2.47, N6-[(1-aminocyclopropyl)methyl]-1-methyl-N4-[5-(trifluoromethyl)pyrazin-2-yl]pyrazolo[3,4-d]pyrimidine-4,6-diamine], the 50% inhibitory concentration (IC50) turned out to be 4520 nM against BCDIN3D [1] and 8300 nM against BCDIN3D [2].
`Cn1ncc2c(Nc3ccc(C(F)(F)F)cc3)nc(NCC(N)CF)nc21` (centres unmarked) [Compound 3.26, 6-N-(2-amino-3-fluoropropyl)-1-methyl-4-N-[4-(trifluoromethyl)phenyl]pyrazolo[3,4-d]pyrimidine-4,6-diamine]: the IC50 against BCDIN3D [1] came to 3000 nM; against BCDIN3D [2] it was 4030 nM.
`CC(C)[C@@H](C)Nc1nc(NC[C@H](N)c2ccccc2)nc2c1cnn2C` [Compound 4.122, N6-[(2R)-2-amino-2-phenylethyl]-1-methyl-N4-[(2R)-3-methylbutan-2-yl]-1H-pyrazolo[3,4-d]pyrimidine-4,6-diamine]: the IC50 at BCDIN3D [1] turned out to be 120 nM; on BCDIN3D [2], 220 nM.
